Test system: MV4:11 human cancer cell lines
Test: Cellular viability / anti-proliferative activity, CellTiter-Glo, 5 day protocol
Type: cell-based
Details: Homo sapiens, MV4-11, 120 h, MV4:11 cells; 5 day incubation; CellTiter-Glo; mean of minimum two replicates; read-out: GI50 on cellular proliferation of MV4:11 human cancer cell lines
Summary of the method: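 Compounds were tested over 22 two-fold dilutions starting at 30 μM in 0.3% DMSO, with 200 cells per well (7200 cells/mL). Viability was measured by CellTiter-Glo luminescence at day 5.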

| GI50 | SMILES |
| --- | --- |
| < 50 nM | CCn1cc(CN2CCc3c(cc(Cn4ccoc4=N)cc3-c3cn(CC)nc3C(F)(F)F)C2=O)nn1 [Example 96, 2-((1-Ethyl-1H-1,2,3-triazol-4-yl)methyl)-5-(1-ethyl-3-(trifluoromethyl)-1H-pyrazol-4-yl)-7-((2-iminooxazol-3(2H)-yl)methyl)-3,4-dihydroisoquinolin-1(2H)-one] |
| 212 nM | CCn1cc(-c2cc(Cn3ccoc3=N)cc3c2CCN(Cc2cn(C)nc2C)C3=O)c(C(F)(F)F)n1 [Example 97, 2-((1,3-Dimethyl-1H-pyrazol-4-yl)methyl)-5-(1-ethyl-3-(trifluoromethyl)-1H-pyrazol-4-yl)-7-((2-iminooxazol-3(2H)-yl)methyl)-3,4-dihydroisoquinolin-1(2H)-one] |
| 207 nM | CCn1cc(-c2cc(CN3CCOC3=N)cc3c2CCN(Cc2cn(C)nc2C)C3=O)c(C(F)(F)F)n1 [Example 98, 2-((1,3-Dimethyl-1H-pyrazol-4-yl)methyl)-5-(1-ethyl-3-(trifluoromethyl)-1H-pyrazol-4-yl)-7-((2-iminooxazolidin-3-yl)methyl)-3,4-dihydroisoquinolin-1(2H)-one] |
| 77 nM | CCn1cc(CN2CCc3c(cc(CN4CCOC4=N)cc3-c3cn(CC)nc3C(F)(F)F)C2=O)nn1 [Example 99, 2-((1-Ethyl-1H-1,2,3-triazol-4-yl)methyl)-5-(1-ethyl-3-(trifluoromethyl)-1H-pyrazol-4-yl)-7-((2-iminooxazolidin-3-yl)methyl)-3,4-dihydroisoquinolin-1(2H)-one] |
| 269 nM | COc1cc(CN2CCc3c(cc(CN4CCSC4=N)cc3-c3ccc(F)cc3C)C2=O)cc(OC)c1 [Example 100, 2-(3,5-Dimethoxybenzyl)-5-(4-fluoro-2-methylphenyl)-7-((2-iminothiazolidin-3-yl)methyl)-3,4-dihydroisoquinolin-1(2H)-one] |
| < 50 nM | COc1ccnc(CN2CCc3c(cc(Cn4ccsc4=N)cc3-c3cn(C)nc3C(F)(F)F)C2=O)c1 [Example 101, 7-((2-Iminothiazol-3(2H)-yl)methyl)-2-((4-methoxypyridin-2-yl)methyl)-5-(1-methyl-3-(trifluoromethyl)-1H-pyrazol-4-yl)-3,4-dihydroisoquinolin-1(2H)-one] |
| > 938 nM | CCn1cc(-c2cc(Cn3ccsc3=N)cc3c2CCN(Cc2cc(OC)ccn2)C3=O)cn1 [Example 102, 5-(1-ethyl-1H-pyrazol-4-yl)-7-((2-iminothiazol-3(2H)-yl)methyl)-2-((4-methoxypyridin-2-yl)methyl)-3,4-dihydroisoquinolin-1(2H)-one] |
| > 938 nM | COc1ccnc(CN2CCc3c(cc(Cn4cc(F)sc4=N)cc3-c3cn(C)nc3C(F)(F)F)C2=O)c1 [Example 103, 7-((5-Fluoro-2-iminothiazol-3(2H)-yl)methyl)-2-((4-methoxypyridin-2-yl)methyl)-5-(1-methyl-3-(trifluoromethyl)-1H-pyrazol-4-yl)-3,4-dihydroisoquinolin-1(2H)-one] |
| < 50 nM | CCn1cc(-c2cc(Cn3ccsc3=N)cc3c2CCN([C@@H](C)c2cc(OC)ccn2)C3=O)c(C(F)(F)F)n1 [Example 104, (S)-5-(1-Ethyl-3-(trifluoromethyl)-1H-pyrazol-4-yl)-7-((2-iminothiazol-3(2H)-yl)methyl)-2-(1-(4-methoxypyridin-2-yl)ethyl)-3,4-dihydroisoquinolin-1(2H)-one] |
| < 50 nM | COc1ccnc([C@H](C)N2CCc3c(cc(Cn4ccsc4=N)cc3-c3cn(C)nc3C(F)(F)F)C2=O)c1 [Example 105, (S)-7-((2-iminothiazol-3(2H)-yl)methyl)-2-(1-(4-methoxypyridin-2-yl)ethyl)-5-(1-methyl-3-(trifluoromethyl)-1H-pyrazol-4-yl)-3,4-dihydroisoquinolin-1(2H)-one] |
| 181 nM | COc1ccnc(CN2CCc3c(cc(CN4CCCC4=N)cc3-c3cn(C)nc3C(F)(F)F)C2=O)c1 [Example 108, 7-((2-Iminopyrrolidin-1-yl)methyl)-2-((4-methoxypyridin-2-yl)methyl)-5-(1-methyl-3-(trifluoromethyl)-1H-pyrazol-4-yl)-3,4-dihydroisoquinolin-1(2H)-one] |
| 104 nM | COc1cc(CN2CCc3c(cc(CN4CCCC4=N)cc3-c3cn(C)nc3C(F)(F)F)C2=O)cc(OC)c1 [Example 109, 2-(3,5-Dimethoxybenzyl)-7-((2-iminopyrrolidin-1-yl)methyl)-5-(1-methyl-3-(trifluoromethyl)-1H-pyrazol-4-yl)-3,4-dihydroisoquinolin-1(2H)-one] |
| > 938 nM | COc1ccnc(CN2CCc3c(cc(CN4CCCC4=N)cc3-c3cn(C)nc3C)C2=O)c1 [Example 110, 5-(1,3-Dimethyl-1H-pyrazol-4-yl)-7-((2-iminopyrrolidin-1-yl)methyl)-2-((4-methoxypyridin-2-yl)methyl)-3,4-dihydroisoquinolin-1(2H)-one] |
| > 938 nM | CCn1cc(-c2cc(CN3CCCC3=N)cc3c2CCN(Cc2cc(OC)ccn2)C3=O)cn1 [Example 111, 5-(1-Ethyl-1H-pyrazol-4-yl)-7-((2-iminopyrrolidin-1-yl)methyl)-2-((4-methoxypyridin-2-yl)methyl)-3,4-dihydroisoquinolin-1(2H)-one] |
| 160 nM | Cc1ccnc(CN2CCc3c(cc(CN4CCCC4=N)cc3-c3cn(C)nc3C(F)(F)F)C2=O)c1 [Example 112, 7-((2-Iminopyrrolidin-1-yl)methyl)-5-(1-methyl-3-(trifluoromethyl)-1H-pyrazol-4-yl)-2-((4-methylpyridin-2-yl)methyl)-3,4-dihydroisoquinolin-1(2H)-one] |
| 462 nM | COc1cc(CN2CCc3c(cc(CN4CCCC4=N)cc3-c3ccc(F)cc3C)C2=O)cc(OC)c1 [Example 113, 2-(3,5-Dimethoxybenzyl)-5-(4-fluoro-2-methylphenyl)-7-((2-iminopyrrolidin-1-yl)methyl)-3,4-dihydroisoquinolin-1(2H)-one] |
| 129 nM | COc1ccnc(CN2CCc3c(cc(CN4CCCC4=N)cc3-c3ccc(F)cc3C)C2=O)c1 [Example 114, 5-(4-Fluoro-2-methylphenyl)-7-((2-iminopyrrolidin-1-yl)methyl)-2-((4-methoxypyridin-2-yl)methyl)-3,4-dihydroisoquinolin-1(2H)-one] |
| > 938 nM | CCn1cc(-c2cc(CN3Cc4ccccc4C3=N)cc3c2CCN(Cc2cc(OC)ccn2)C3=O)c(C(F)(F)F)n1 [Example 115, 5-(1-Ethyl-3-(trifluoromethyl)-1H-pyrazol-4-yl)-7-((1-iminoisoindolin-2-yl)methyl)-2-((4-methoxypyridin-2-yl)methyl)-3,4-dihydroisoquinolin-1(2H)-one] |
| 268 nM | COc1cc(CN2CCc3c(cc(Cn4ccccc4=N)cc3-c3ccc(F)cc3C)C2=O)cc(OC)c1 [Example 116, 2-(3,5-Dimethoxybenzyl)-5-(4-fluoro-2-methylphenyl)-7-((2-iminopyridin-1(2H)-yl)methyl)-3,4-dihydroisoquinolin-1(2H)-one] |
| > 938 nM | COc1ccnc(CN2CCc3c(cc(Cn4ccccc4=N)cc3-c3cn(C)nc3C)C2=O)c1 [Example 117, 5-(1,3-Dimethyl-1H-pyrazol-4-yl)-7-((2-iminopyridin-1(2H)-yl)methyl)-2-((4-methoxypyridin-2-yl)methyl)-3,4-dihydroisoquinolin-1(2H)-one] |

Source: patent US11999716B2, “WDR5 inhibitors and modulators” (priority 2018, dated 2024)
